Source: patent EP2098226A1, “AKAP-PKA interaction inhibitors for use in the treatment of heart diseases” (Forschungsverbund Berlin e.V., priority 2008, dated 2009)
Read-outs that look alike come from different tables or passages of the source.

Experiments:
[1] = test system: neonatalen Kardiomyozyten aus der Ratte; experiment: cAMP level in neonatal cardiomyocytes, ELISA-based assay; assay type: cell-based; conditions: substances 50 µM in the presence of Isoproterenol 100 nM
Procedure: Die Substanzen 1025, 1026, 1027 und 1028 steigern in Gegenwart des β-Adrenozeptoragonisten Isoproterenol den cAMP-Spiegel in neonatalen Kardiomyozyten aus der Ratte. Die Zellen wurden unbehandelt belassen, mit Isoproterenol allein (100 nM) oder mit Isoproterenol (100 nM) und den Substanzen (50 µM) inkubiert. Der cAMP-Spiegel wurde durch einen ELISA-basierten Assay bestimmt.

RIIα = RIIα (Homo sapiens, UniProt P13861); experiment: Biacore: direct binding of substances to covalently immobilised RIIα; conditions: for Bindungen des Peptids Ht31 und der Substanz an RIIα: RIIα surface incubated with peptide Ht31 and additionally with the substance; for Bindung an RIIα: surfaces covalently coated with RIIα, incubated with the substances
Chain of RIIα (P13861 whole entry): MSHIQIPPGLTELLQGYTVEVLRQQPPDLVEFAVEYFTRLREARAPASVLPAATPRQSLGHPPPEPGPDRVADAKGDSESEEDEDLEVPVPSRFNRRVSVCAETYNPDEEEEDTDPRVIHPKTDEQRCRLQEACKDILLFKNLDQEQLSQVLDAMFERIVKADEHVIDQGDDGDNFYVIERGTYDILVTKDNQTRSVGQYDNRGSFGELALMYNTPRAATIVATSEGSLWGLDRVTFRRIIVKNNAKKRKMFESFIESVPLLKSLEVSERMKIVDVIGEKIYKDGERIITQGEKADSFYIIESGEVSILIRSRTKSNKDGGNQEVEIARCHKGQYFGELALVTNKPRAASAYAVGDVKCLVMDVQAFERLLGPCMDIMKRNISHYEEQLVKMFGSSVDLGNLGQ
Text: Biacore-Messungen zum Nachweis der Bindung der Substanz 1026 an RIIα. Es wurden Oberflächen durch kovalente Bindung mit RIIα beschichtet und mit der Substanz in den angegebenen Konzentrationen inkubiert.
Die Bindungen des Peptids Ht31 und der Substanz 1026 an RIIα sind additiv. Es wurden Oberflächen durch kovalente Bindung mit RIIα beschichtet und mit dem Peptid Ht31, das an die sog. Dimerisierungs- und docking-Domäne (DD-Domäne) von regulatorischen Untereinheiten der PKA bindet, inkubiert.
Es wurden Oberflächen durch kovalente Bindung mit RIIα beschichtet und mit den Substanzen inkubiert.

PKA [2] = experiment: PKA activation in neonatal cardiomyocytes (Peptag phosphorylation); assay type: cell-based, Ratte; conditions: 300µM for 30 min, densitometry
Procedure: Die zeigt, dass die Substanzen 1016,1020,1021 und 1027 PKA in neonatalen Kardiomyozyten aus der Ratte aktivieren. Die Zellen wurden mit DMSO (Kontrolle), die Substanzen in 300µM Konzentrationen, oder dem Adenylylzyklaseaktivator Forskolin für 30 min inkubiert. Die Aktivierung der PKA wurde anhand der Phosphorylierung des fluoreszierenden Substratpeptids Peptag verfolgt und quantifiziert. Die semiquantitative Analyse der Peptag-Peptidephosphorylierung wurde densitometrisch vorgenommen. Angegeben sind relative densitometrische Einheiten (RDU; Mittelwerte ± SD).
zeigt, dass die Substanzen 1016,1020,1021 und 1027 PKA in neonatalen Kardiomyozyten aus der Ratte aktivieren. Die Zellen wurden mit DMSO (Kontrolle), die Substanzen in 300µM Konzentrationen, oder dem Adenylylzyklaseaktivator Forskolin (FSK) für 30 min inkubiert. Die Aktivierung der PKA wurde anhand der Phosphorylierung des fluoreszierenden Substratpeptids Peptag verfolgt und quantifiziert. Die semiquantitative Analyse der Peptag-Peptidephosphorylierung wurde densitometrisch vorgenommen. Angegeben sind relative densitometrische Einheiten (RDU; Mittelwerte ± SD).

Rattenherzen = experiment: Langendorff isolated heart: left ventricular pressure, contraction and relaxation rates; parameters: species or system Ratte; conditions: perfused rat hearts, 10 µM, n ≥ 8 hearts per condition
Procedure: Bestimmung der linksventrikulären Druckentwicklung, der maximalen Kontraktions- (CR) und Relaxationsraten (RR) von Rattenherzen (in %) in einer Langendorff-Herz-Apparatur.
zeigt den Einfluss von Isoproterenol, DMSO, den Substanzen 1016, 1020 und 1021 auf die relative Zellgröße der Kardiomyozyten bezogen auf die durchschnittliche Zellgröße von Kontrollzellen (%). Kardiomyozyten wurden für 48h entweder unbehandelt belassen oder mit 15 µM Isoproterenol als Kontrollen inkubiert. Da die Kardiomyozyten zusätzlich zu der Substanz mit höchstens 0,1% DMSO inkubiert wurden, wurden Kardiomyozyten nur mit 0,1% für 48h inkubiert. Des Weiteren wurde ein möglicher Effekt von DMSO auf die Isoproterenolinduzierte Hypertrophie untersucht und die Zellen demnach mit 0,1% DMSO für 20 min präinkubiert und anschließend mit 15 µM Isoproterenol für 48 h inkubiert. Außerdem wurden Kardiomyozyten mit den Substanzen 1016, 1020 und 1021 in den Konzentrationen 3, 10, 30, 50 oder 75 µM für 48 h ohne Isoproterenol inkubiert. Des Weiteren wurden Kardiomyozyten mit den Substanzen 1016, 1020 und 1021 in den Konzentrationen 3, 10, 30, 50 oder 75 µM präinkubiert. Dann wurde Isoproterenol (15 µM) zu den Endkonzentrationen von 3, 10, 30, 50 oder 75 µM zugegeben und die Kardiomyozyten damit für 48 h inkubiert. Nach der Inkubation mit den Substanzen wurde α-Aktinin immunfluoreszenzmikroskopisch dargestellt. […]

Phopholamban (PLB) = experiment: Phospholamban phosphorylation in neonatal cardiomyocytes (Western blot); assay type: cell-based; conditions: 300 µM for 5 min; p-PLB relative to Calsequestrin
Procedure: Die Zellen wurden mit DMSO (control), dem β-Adrenozeptoragonisten Isoproterenol (ISO) oder dem AKAP-PKA-Interaktionshemmer FMP-API-1 bzw. dessen Derivaten (300 µM) für 5 min. inkubiert, anschließend lysiert und im Western Blot wurde phosphoryliertes Phospholamban (p-PLB) mittels eines spezifischen anti-Phospholambanantikörpers detektiert. Calsequestrin, ein Protein des sarkoplasmatischen Retikulums, dient als Ladungskontrolle. Für die Quantifizierung (densitometrische Auswertung) wurde die p-PLB-Menge auf die Menge von Calsequestrin bezogen. Angegeben sind relative densitometrische Einheiten (RDU; Mittelwerte ± SEM, drei unabhängige Experimente).

[3] = test system: Interaktionen von regulatorischen RII-Untereineinheiten der PKA (RIIα und β) mit AKAP150, dem AKAP Yotiao und AKAP18δ; experiment: cAMP-agarose precipitation with Western blot detection of precipitated AKAPs; assay type: cell-based; conditions: neonatal cardiomyocytes; FMP-API-1 100 µM; precipitated AKAPs detected by Western blot
Procedure: Die Verbindungen 18882 (FMP-API-1), 1016, 1020 und 1021 (siehe Tabelle 1) hemmen die Interaktionen von regulatorischen RII-Untereineinheiten der PKA (RIIα und β) mit AKAP150, dem AKAP Yotiao und AKAP18δ. Es wurden cAMP-Agarose-Präzipitationen mit neonatalen Kardiomyozyten in Ab- oder Anwesenheit des AKAP-PKA-Interaktionshemmers FMP-API-1 (100 µM), einer Kontrollsubstanz (100 µM) und cAMP (50 mM) durchgeführt. cAMP-Agarose bindet regulatorische Untereinheiten der PKA und deren Bindungspartner, inklusive AKAP. Präzipitierte AKAP wurden mit spezifischen Antikörpern mittels Western Blot detektiert.

[4] = test system: neonatalen Kardiomyozyten aus der Ratte; experiment: cAMP level in neonatal cardiomyocytes, radioimmunoassay (RIA); assay type: cell-based; conditions: substances 50 µM in the presence of Isoproterenol 100 nM
Procedure: Die Substanzen 18882 (FMP-API-1), 1004, 1010, 1016, 1020, 1021 und 1023 steigern in Gegenwart des β-Adrenozeptoragonisten Isoproterenol den cAMP-Spiegel in neonatalen Kardiomyozyten aus der Ratte. Die Zellen wurden unbehandelt belassen, mit Isoproterenol allein (100 nM), mit Isoproterenol (100 nM) und den Substanzen (50 µM) oder mit Forskolin inkubiert. Der cAMP-Spiegel wurde durch Radioimmuno-Assay (RIA) bestimmt.

[5] = test system: AKAP18δ und regulatorischen RIIα- und RIIβ-Untereinheiten; experiment: Oligomerisation of AKAP18δ and RII subunits in neonatal cardiomyocytes (cAMP-agarose precipitation, Western blot); assay type: cell-based; conditions: neonatal cardiomyocytes incubated with the substances
Text: Neonatale Kardiomyozyten wurden mit den Substanzen in den angegebenen Konzentrationen inkubiert. A. Anschließend wurde eine cAMP-Agarose-Präzipitation und ein Western Blot (WB) zur Detektion von AKAP18δ durchgeführt. Als Negativkontrolle wurde die cAMP-Agarose mit cAMP inkubiert, das die Bindung von R-Untereinheiten an die Agarose verhindert. B. Detektion von RIIβ in Lysaten von neonatalen Kardiomyozyten. C. Detektion von AKAP18δ, RIIα und RIIβ nach Inkubation mit den Substanzen.

PKA [6] = molecular target: PKA (Homo sapiens, UniProt P31323); experiment: PKA activation in vitro (Peptag substrate peptide phosphorylation); assay type: biochemical; conditions: 1 mM, catalytic subunits with or without RIIβ subunits
Chain of PKA (Homo sapiens, UniProt P31323) (P31323 whole entry): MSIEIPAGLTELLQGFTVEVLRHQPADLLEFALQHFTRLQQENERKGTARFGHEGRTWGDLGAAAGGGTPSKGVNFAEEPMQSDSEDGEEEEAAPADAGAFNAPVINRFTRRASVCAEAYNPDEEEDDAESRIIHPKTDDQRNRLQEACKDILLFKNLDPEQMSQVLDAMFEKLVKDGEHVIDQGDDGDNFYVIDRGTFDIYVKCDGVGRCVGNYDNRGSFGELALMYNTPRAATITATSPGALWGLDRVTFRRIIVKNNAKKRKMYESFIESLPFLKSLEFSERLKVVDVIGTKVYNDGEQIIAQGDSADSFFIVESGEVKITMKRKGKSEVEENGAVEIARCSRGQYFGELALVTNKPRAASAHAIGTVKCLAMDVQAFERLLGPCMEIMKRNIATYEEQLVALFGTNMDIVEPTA
Procedure: Die Substanz 18882 (FMP-API-1) aktiviert PKA in vitro. Das Experiment wurde wie in Abb. 24 dargestellt durchgeführt. Hier wurde zusätzlich mit AKAP18δ inkubiert. Katalytische Untereinheiten der PKA wurden in An- oder Abwesenheit von regulatorischen RIIβ-Untereinheiten mit der Substanz 18882 (FMP-API-1; 1 mM) inkubiert. Die Aktivierung der PKA wurde anhand der Phosphorylierung des fluoreszierenden Substratpeptids Peptag verfolgt und quantifiziert. Die semiquantitative Analyse der Peptag-Peptidphosphorylierung wurde densitometrisch vorgenommen (Mittelwerte ± SEM). Die Gegenwart des AKAP hat einen geringen zusätzlich Einfluß auf den Effekt der Substanz 18882.

[7] = test system: kultivierten adulten Kardiomyozyten; experiment: Contractility of cultured adult cardiomyocytes (Fura-2, field stimulation); assay type: cell-based; conditions: 10µM; calcium fluxes and cell shortening parameters
Procedure: Die Substanzen 18882 (FMP-API-1) und 1016 steigern die Kontraktilität an kultivierten adulten Kardiomyozyten (positiv inotroper Effekt). Die Zellen wurden isoliert, mit Fura-2 beladen und einer Feldstimulation ausgesetzt. Bestimmt wurden die Calciumfluxe und Zellverkürzungsparameter (cell shortening parameters) unter basalen Bedingungen und in Gegenwart von DMSO, Isoproterenol , FMP-API-1 (10µM) oder 1016 (10µM). Dargestellt sind Mittelwerte ± SEM.

[8] = molecular target: Bindung von RIIα an Peptide, die aus der PKA-Bindedomäne von AKAP18δ abgeleitet sind (AKAP18δ-L314E) (Homo sapiens, UniProt P13861); experiment: Biacore: inhibition of RIIα binding to immobilised peptide AKAP18δ-L314E; conditions: for Hemmung der Interaktion (RIIα-Bindung an das Peptid AKAP18δ-L314E): preincubation of RIIα for 2 h; for inhibition at 100 µM: read-out: maximale Hemmung (RIIα-Bindung an das Peptid AKAP18δ-L314E)
Chain of Bindung von RIIα an Peptide, die aus der PKA-Bindedomäne von AKAP18δ abgeleitet sind (AKAP18δ-L314E) (P13861 whole entry, stated change not applied): as the sequence (P13861 whole entry) above
Text: Für das Experiment wurden Oberflächen mit dem Peptid beschichtet, mit RIIα-Untereinheiten inkubiert und die Reaktion in Biacore-Messungen verfolgt.

Structure (SMILES) | cAMP-Spiegel [1] | Bindungen des Peptids Ht31 und der Substanz an RIIα (RIIα) | Bindung an RIIα (RIIα) | Aktivierung der PKA in neonatalen Kardiomyozyten (PKA [2]) | Zunahme der gemessenen Parameter (linksventrikuläre Druckentwicklung, maximale Kontraktions- (CR) und Relaxationsraten (RR)) (Rattenherzen) [%] | Phosphorylierung von Phopholamban (PLB) (Phopholamban (PLB)) | Hemmung der Interaktionen von regulatorischen RII-Untereineinheiten der PKA (RIIα und β) mit AKAP150, Yotiao und AKAP18δ [3] | cAMP-Spiegel [4] | Oligomerisierung (Oligomers) von AKAP18δ und regulatorischen RIIα- und RIIβ-Untereinheiten [5] | Aktivierung der PKA in vitro (PKA [6]) | Kontraktilität (positiv inotroper Effekt) [7] | Hemmung der Interaktion (RIIα-Bindung an das Peptid AKAP18δ-L314E) [8] [%] | inhibition at 100 µM [8] [%] | inhibition at 100 µM ([8]; concentration 100 µM) [%]
O=C(c1ccc(O)c(O)c1)c1ccc(O)c(O)c1 [Verbindung 1028, Bis-(3,4-dihydroxy-phenyl)-methanon] | steigern | additiv | konzentrationsabhängigen Bindung | – | – | – | – | – | – | – | – | – | – | –
Oc1ccc(Cc2ccccc2)cc1O [Verbindung 1027, 4-Benzyl-pyrocatechol] | steigern | additiv | konzentrationsabhängigen Bindung | aktivieren | – | – | – | – | – | – | – | – | – | –
COc1ccc(Cc2ccc(OC)c(N)c2)cc1N [Verbindung 1030] | – | – | konzentrationsabhängigen Bindung | – | – | – | – | – | – | – | – | – | – | –
Nc1cc(Cc2ccc(O)c(N)c2)ccc1O [Verbindung 18882, 3,3'-Diamino-4,4'-dihydroxydiphenylmethan, reference compound] | – | – | – | – | ~17 | induzieren eine Zunahme | hemmen | steigern | induzieren die Oligomerisierung | aktiviert | steigern | – | – | –
CC(c1ccc(O)cc1)c1ccc(O)c(N)c1 (stereo not shown) [Verbindung 1021, 3-Amino-1,1-bis-(4-hydroxyphenyl)-ethan] | – | – | – | aktivieren | – | induzieren eine Zunahme | hemmen | steigern | induzieren die Oligomerisierung | – | – | ~40 | ~50 | –
CC(c1ccc(O)c(N)c1)c1ccc(O)c(N)c1 [Verbindung 1020, 1,1-Bis-(3-Amino-4-hydroxyphenyl)-ethan] | – | – | – | aktivieren | – | induzieren eine Zunahme | hemmen | steigern | induzieren die Oligomerisierung | – | – | ~50 | ~50 | –
Nc1cc(Cc2ccc(O)cc2)ccc1O [Verbindung 1016, 3-Amino-4,4'-dihydroxydiphenylmethan] | – | – | – | aktivieren | – | induzieren eine Zunahme | hemmen | steigern | induzieren die Oligomerisierung | – | steigern | ~50 | – | ~60
